Experiments:
A549 cells [1] = experiment: MTT reduction proliferation assay, microtiter plate, A549 cells; type: cell-based, human; conditions: zinc by itself at 100 μM
Source text: (§1) Final mannitol concentration was 0.31% in all wells.

Ramos cells = experiment: Cytotoxicity by propidium iodide uptake, flow cytometry; conditions: agent alone
Experimental: Gated cells with fluorescence at 585 nm from two cultures are shown for each time point. Error bars indicate standard deviation.
In other experiments (FIG. 11), Ramos cells grown in T-25 flasks were treated with a compound of Formula I (where M=Gd) (10 or 50 μM) and zinc (25 or 50 μM) for 1-2 days, Coulter counted, and analyzed by flow cytometry using propidium iodide.

A549 cells [2] = experiment: MTT assay, plateau phase A549 cells treated with 1-hydroxypyridine-2-thione, MGd and zinc; type: cell-based, human
Source text: as §1

Compound | effect on A549 cells (A549 cells [1]; after one day) | effect on A549 cells (A549 cells [1]; after three days) | cytotoxicity as assessed by flow cytometry after staining with propidium iodide (Ramos cells) | effect on A549 cells (A549 cells [2]; ZnHPT by itself at 0.625 μM, formed in situ from zinc acetate and 1-hydroxypyridine-2-thione, after one day (FIG. 12)) | cytotoxic dose of the zinc complex of 1-hydroxypyridine-2-thione (A549 cells [2]; in the presence of a compound of formula 1)
CC(=O)[O-].CC(=O)[O-].[Zn+2] [zinc, zinc acetate] | no significant effect | no significant effect | did not increase cytotoxicity |  | 
c1cc[n+]2c(c1)[S][Zn]1([O]2)[O][n+]2ccccc2[S]1 [ZnHPT, Zinc complex of 1-hydroxypyridine-2-thione] |  |  |  | no significant effect | lowered

Source: patent publication US20050196466A1, “Process for inhibiting cell proliferation” (Pharmacyclics, Inc., priority 2004, published 2005)
